Test results taken from patent US4639452A, “Arylic derivatives of piperazine, the method of preparing same and their application in therapeutics” (Delalande S.A., priority 1982, dated 1987).

Legend:
male SWISS-WEBSTER mice = experiment: mnesic retention test of exploratory activity (APELAB ACTIMETER); type: in vivo; conditions: re-measured after a week; for inhibition in vivo at 10 mg/kg: dose 10 mg/kg i.v.
[1] = approximate acute toxicity (MILLER and TAINTER); conditions: mouse, in vivo, mice
Description: The approximate acute toxicity is determined according to the method described by MILLER and TAINTER in Proc. Soc. Exp. Biol. Med. 57, 261 (1944).

[2] = Mus musculus, iv, 168 h, dose 3 mg/kg i.v., read-out: Mnesic test: % reduction of the exploratory activity
[3] = Mus musculus, iv, 168 h, read-out: Mnesic test: % reduction of the exploratory activity
[4] = Mus musculus, iv, 168 h, dose 1 mg/kg i.v., read-out: Mnesic test: % reduction of the exploratory activity

Compound | inhibition in vivo at 3 mg/kg (male SWISS-WEBSTER mice; [2]) | mortality ([1]; iv, dose 200 mg/kg i.v.) | other results
COc1cc(/C=C/C(=O)N2CCN(CC(N)=O)CC2)cc(OC)c1OC [Code number 11, trans-1-(3,4,5-trimethoxy)cinnamoyl 4-aminocarbonylmethyl piperazine] | 28.4% | 0% | –
COc1cc(/C=C/C(=O)N2CCN(CC(=O)NC3CCCC3)CC2)cc(OC)c1OC [compound 23] | 18.4% | 0% | –
COc1cc(/C=C/C(=O)N2CCN(CC(=O)NC(C)C)CC2)ccc1O [compound 26] | – | – | inhibition in vivo at 10 mg/kg (male SWISS-WEBSTER mice; [3]): 14.3%
COc1cc(/C=C/C(=O)N2CCN(CC(=O)NCc3cc(OC)c(OC)c(OC)c3)CC2)cc(OC)c1OC [compound 29] | 9.9% | 0% | –
O=C(/C=C/c1ccccc1)N1CCN(CC(=O)N2CCCC2)CC1 [compound 36] | – | 0% | inhibition in vivo at 10 mg/kg (male SWISS-WEBSTER mice; [3]): 18.4%
O=C(/C=C/c1ccc2c(c1)OCO2)N1CCN(CC(=O)N2CCCC2)CC1 [compound 37] | – | – | inhibition in vivo at 1 mg/kg (male SWISS-WEBSTER mice; [4]): 25.2%; mortality ([1]; ip, dose 400 mg/kg i.p.): 0%
O=C(/C=C/c1ccc(F)cc1)N1CCN(CC(=O)N2CCCC2)CC1 [compound 38] | 28.6% | 10% | –
O=C(/C=C/c1ccc(Cl)c(Cl)c1)N1CCN(CC(=O)N2CCCC2)CC1 [compound 40] | 28.9% | – | mortality ([1]; iv, dose 120 mg/kg i.v.): 50%
COc1cc(/C=C/C(=O)N2CCN(CC(=O)N3CCCC3)CC2)cc(OC)c1 [compound 43] | – | – | inhibition in vivo at 10 mg/kg (male SWISS-WEBSTER mice; [3]): 23.8%
O=C(/C=C/c1ccc(Cl)cc1)N1CCN(CC(=O)N2CCCC2)CC1 [compound 47] | – | 0% | inhibition in vivo at 1 mg/kg (male SWISS-WEBSTER mice; [4]): 26.5%
COc1ccccc1/C=C/C(=O)N1CCN(CC(=O)N2CCCC2)CC1 [compound 48] | – | 0% | inhibition in vivo at 30 mg/kg (male SWISS-WEBSTER mice; Mus musculus, iv, 168 h, dose 30 mg/kg i.v., read-out: Mnesic test: % reduction of the exploratory activity): 26.1%
COc1ccc(OC)c(/C=C/C(=O)N2CCN(CC(=O)N3CCCC3)CC2)c1 [compound 49] | – | – | inhibition in vivo at 1 mg/kg (male SWISS-WEBSTER mice; [4]): 15.7%; mortality ([1]; iv, dose 205 mg/kg i.v.): 50%
O=C(/C=C/c1ccc2c(c1)OCO2)N1CCN(CC(=O)N2CCCCC2)CC1 [compound 55] | 18.7% | – | –
O=C(/C=C/c1ccc(Cl)cc1)N1CCN(CC(=O)N2CCCCC2)CC1 [compound 56] | 23.5% | – | –
trans-1-(3,4,5-trimethoxy)cinnamoyl 4-(2-hydroxy)ethyl piperazine maleate [Code number 2] | – | – | Mnesic test: % reduction of the exploratory activity (male SWISS-WEBSTER mice; dose 3 mg/kg i.v.): 17.5%
trans-1-(3,4-methylenedioxy)cinnamoyl 4-pyrrolidinocarbonyl piperazine, hydrochloride [Code number 37] | – | – | Mnesic test: % reduction of the exploratory activity (male SWISS-WEBSTER mice; dose 1 mg/kg i.v.): 14.7%
